Assay [1] concerns the target T1, Recombinant IKKα (Homo sapiens, UniProt O15111).
T1 construct: purchased Millipore, Dundee, UK
T1 sequence (O15111 1-745): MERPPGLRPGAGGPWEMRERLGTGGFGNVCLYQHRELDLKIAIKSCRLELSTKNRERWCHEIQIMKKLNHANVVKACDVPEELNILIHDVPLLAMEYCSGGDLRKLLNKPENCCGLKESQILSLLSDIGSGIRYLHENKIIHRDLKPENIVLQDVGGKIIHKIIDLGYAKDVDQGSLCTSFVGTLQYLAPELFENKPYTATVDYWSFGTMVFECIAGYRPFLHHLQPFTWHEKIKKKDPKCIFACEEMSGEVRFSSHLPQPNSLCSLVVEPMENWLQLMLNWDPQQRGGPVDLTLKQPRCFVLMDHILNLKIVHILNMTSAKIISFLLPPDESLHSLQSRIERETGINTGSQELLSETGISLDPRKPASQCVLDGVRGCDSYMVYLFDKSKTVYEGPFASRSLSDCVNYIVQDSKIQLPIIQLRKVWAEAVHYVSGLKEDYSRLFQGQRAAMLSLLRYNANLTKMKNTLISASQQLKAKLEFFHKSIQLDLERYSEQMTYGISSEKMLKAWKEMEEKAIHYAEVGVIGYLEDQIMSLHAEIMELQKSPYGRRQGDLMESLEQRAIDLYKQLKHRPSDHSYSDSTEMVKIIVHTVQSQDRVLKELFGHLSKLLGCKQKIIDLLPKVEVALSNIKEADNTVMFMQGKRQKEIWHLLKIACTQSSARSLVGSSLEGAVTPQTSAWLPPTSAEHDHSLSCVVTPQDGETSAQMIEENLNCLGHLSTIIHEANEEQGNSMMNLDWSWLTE
Description: DELFIA IKKα kinase assay (apparent Ki, Cheng-Prusoff). Type of assay: biochemical. The settings on record: non-italicised figure: DELFIA assay. The essentials: (§1)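 Recombinant IKKα or IKKβ (37 nM) with 0.375 μM biotinylated IκB-α (Ser32) peptide and 40 μM ATP in 40 mM Tris-HCl pH 7.5, 20 mM MgCl2, 60 min at 30° C. Phospho-substrate captured on streptavidin and detected by anti-phospho-IκB-α plus europium anti-mouse IgG time-resolved fluorescence; apparent Ki via Cheng-Prusoff.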

Assay [2] has as its target T2, Recombinant IKKβ (Homo sapiens, UniProt O14920).
T2 construct: purchased Millipore, Dundee, UK
T2 sequence (O14920 1-756): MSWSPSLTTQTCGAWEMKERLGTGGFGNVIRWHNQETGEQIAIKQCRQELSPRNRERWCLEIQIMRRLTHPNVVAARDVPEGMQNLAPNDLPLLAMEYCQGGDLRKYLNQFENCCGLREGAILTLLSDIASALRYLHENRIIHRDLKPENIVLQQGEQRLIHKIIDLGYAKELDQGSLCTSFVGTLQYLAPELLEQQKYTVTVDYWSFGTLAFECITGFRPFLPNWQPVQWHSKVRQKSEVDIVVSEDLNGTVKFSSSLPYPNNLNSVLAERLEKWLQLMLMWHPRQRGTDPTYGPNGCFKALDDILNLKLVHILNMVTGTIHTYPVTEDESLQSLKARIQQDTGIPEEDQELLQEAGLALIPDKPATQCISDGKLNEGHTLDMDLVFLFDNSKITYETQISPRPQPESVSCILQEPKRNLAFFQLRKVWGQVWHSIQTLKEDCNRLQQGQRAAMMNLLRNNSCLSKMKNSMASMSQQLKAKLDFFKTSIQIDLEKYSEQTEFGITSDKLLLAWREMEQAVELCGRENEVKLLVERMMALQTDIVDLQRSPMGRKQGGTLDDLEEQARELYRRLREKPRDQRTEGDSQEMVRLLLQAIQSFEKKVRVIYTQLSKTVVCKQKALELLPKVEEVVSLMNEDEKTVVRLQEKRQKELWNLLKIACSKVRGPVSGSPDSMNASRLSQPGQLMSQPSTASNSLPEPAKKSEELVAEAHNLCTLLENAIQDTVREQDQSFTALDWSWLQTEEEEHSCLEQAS
The assay is described as follows: DELFIA IKKβ kinase assay (apparent Ki, Cheng-Prusoff). The settings on record: non-italicised figure: DELFIA assay. The format is biochemical. The essentials: as §1

Take `CC(C)(C)C#Cc1cc(-c2ccnc(NCC3CC3)c2)cc2c(N)n[nH]c12` [Example 157, 5-(2-((Cyclopropylmethyl)amino)pyridin-4-yl)-7-(3,3-dimethylbut-1-yn-1-yl)-1H-indazol-3-amine]: the Ki in assay [1] was 0.141 µM; in assay [2] it was 2.8 µM.

As for `CC(C)(C)C#Cc1cc(-c2ccnc(NCCC#N)c2)cc2c(N)n[nH]c12` [Example 159, 3-((4-(3-Amino-7-(3,3-dimethylbut-1-yn-1-yl)-1H-indazol-5-yl)pyridin-2-yl)amino)propanenitrile], the Ki was 0.022 µM in assay [1] and 1.96 µM in assay [2].

`CC(C)(C)C#Cc1cc(-c2ccnc(NCCO)c2)cc2c(N)n[nH]c12` [Example 160, 2-((4-(3-Amino-7-(3,3-dimethylbut-1-yn-1-yl)-1H-indazol-5-yl)pyridin-2-yl)amino)ethan-1-ol]: the values for the Ki in assay [1] and in assay [2] were 0.008 µM and 1.34 µM, respectively.

On to `CC(C)(C)C#Cc1cc(-c2ccnc(NCCN)c2)cc2c(N)n[nH]c12` [Example 161, N^1-(4-(3-Amino-7-(3,3-dimethylbut-1-yn-1-yl)-1H-indazol-5-yl)pyridin-2-yl)ethane-1,2-diamine], for which the Ki in assay [1] was determined as 0.128 µM; in assay [2], 7.61 µM.

As for `COCCNc1cc(-c2cc(C#CC(C)(C)C)c3[nH]nc(N)c3c2)ccn1` [Example 162, 7-(3,3-dimethylbut-1-yn-1-yl)-5-(2-((2-methoxyethyl)amino)pyridin-4-yl)-1H-indazol-3-amine], the values for the Ki in assay [1] and in assay [2] were 0.035 µM and 1.11 µM, respectively.

`COCCCNc1cc(-c2cc(C#CC(C)(C)C)c3[nH]nc(N)c3c2)ccn1` [Example 163, 7-(3,3-Dimethylbut-1-yn-1-yl)-5-(2-((3-methoxypropyl)amino)pyridine-4-yl)-1H-indazol-3-amine]: the Ki in assay [1] was above 3 µM; in assay [2] it was above 30 µM.

With `CC(=O)Nc1cc(-c2cc(C#CC(C)(C)C)c3[nH]nc(N)c3c2)ccn1` [Example 164, N-(4-(3-Amino-7-(3,3-dimethylbut-1-yn-1-yl)-1H-indazol-5-yl)pyridin-2-yl)acetamide], the Ki came out at 0.015 µM in assay [1] and 0.35 µM in assay [2].

With `CCC(=O)Nc1cc(-c2cc(C#CC(C)(C)C)c3[nH]nc(N)c3c2)ccn1` [Example 165, N-(4-(3-Amino-7-(3,3-dimethylbut-1-yn-1-yl)-1H-indazol-5-yl)pyridin-2-yl)propionamide], the figures for the Ki in assay [1] and in assay [2] were 0.007 µM and 0.78 µM, respectively.

For the molecule `CC(C)(C)C#Cc1cc(-c2ccnc(NC(=O)C3CC3)c2)cc2c(N)n[nH]c12` [Example 167, N-(4-(3-Amino-7-(3,3-dimethylbut-1-yn-1-yl)-1H-indazol-5-yl)pyridin-2-yl)cyclopropane carboxamide], the values for the Ki in assay [1] and in assay [2] were 0.015 µM and 1.11 µM, respectively.

On to `CC(C)C(=O)Nc1cc(-c2cc(C#CC(C)(C)C)c3[nH]nc(N)c3c2)ccn1` [Example 168, N-(4-(3-Amino-7-(3,3-dimethylbut-1-yn-1-yl)-1H-indazol-5-yl)pyridin-2-yl)isobutyramide], for which the Ki is 0.273 µM in assay [1] and 2.58 µM in assay [2].

For the molecule `CC(C)(C)C#Cc1cc(-c2ccnc(NC(=O)CC3CC3)c2)cc2c(N)n[nH]c12` [Example 170, N-(4-(3-Amino-7-(3,3-dimethylbut-1-yn-1-yl)-1H-indazol-5-yl)pyridin-2-yl)-2-cyclopropylacetamide], the Ki in assay [1] came to 0.026 µM; in assay [2], 1.55 µM.

As for `CC(C)CC(=O)Nc1cc(-c2cc(C#CC(C)(C)C)c3[nH]nc(N)c3c2)ccn1` [Example 171, N-(4-(3-Amino-7-(3,3-dimethylbut-1-yn-1-yl)-1H-indazol-5-yl)pyridine-2-yl)-3-methylbutanamide], the values for the Ki in assay [1] and in assay [2] were 0.122 µM and 5.68 µM, respectively.

In the case of `CC(C)(C)C#Cc1cc(-c2ccnc(NC(=O)C3CCC3)c2)cc2c(N)n[nH]c12` [Example 172, N-(4-(3-Amino-7-(3,3-dimethylbut-1-yn-1-yl)-1H-indazol-5-yl)pyridin-2-yl)cyclobutanecarboxamide], the figures for the Ki in assay [1] and in assay [2] were 0.089 µM and 3.33 µM, respectively.

Regarding `CC(C)(C)C#Cc1cc(-c2ccnc(NC(=O)C3CCCC3)c2)cc2c(N)n[nH]c12` [Example 173, N-(4-(3-Amino-7-(3,3-dimethylbut-1-yn-1-yl)-1H-indazol-5-yl)pyridin-2-yl)cyclopentanecarboxamide], the Ki in assay [1] amounted to 0.298 µM; in assay [2] it was 23.8 µM.

Turning to `CC(C)(C)C#Cc1cc(-c2ccnc(NC(=O)CO)c2)cc2c(N)n[nH]c12` [Example 174, N-(4-(3-Amino-7-(3,3-dimethylbut-1-yn-1-yl)-1H-indazol-5-yl)pyridin-2-yl)-2-hydroxyacetamide], the Ki in assay [1] was 0.02 µM; in assay [2] it was 0.611 µM.

For `COCC(=O)Nc1cc(-c2cc(C#CC(C)(C)C)c3[nH]nc(N)c3c2)ccn1` [Example 175, N-(4-(3-Amino-7-(3,3-dimethylbut-1-yn-1-yl)-1H-indazol-5-yl)pyridin-2-yl)-2-methoxyacetamide], the Ki in assay [1] came out at 0.024 µM; in assay [2], 1.11 µM.

As to `COC(=O)Nc1cc(-c2cc(C#CC3CC3)c3[nH]nc(N)c3c2)ccn1` [Example 179, Methyl (4-(3-amino-7-(cyclopropylethynyl)-1H-indazol-5yl)-pyridin-2-yl)carbamate], the figures for the Ki in assay [1] and in assay [2] were 0.01 µM and 0.962 µM, respectively.

Take `COC(=O)Nc1cc(-c2cc(C#CC(C)(C)O)c3[nH]nc(N)c3c2)ccn1` [Example 180, Methyl (4-(3-amino-7-(3-hydroxy-3-methylbut-1-yn-1-yl)-1H-indazol-5-yl)pyridin-2-yl)carbamate]: the Ki in assay [1] worked out at 0.005 µM; in assay [2] it was 0.826 µM.

`COC(=O)Nc1cc(-c2cc(C#CC(C)(C)N)c3[nH]nc(N)c3c2)ccn1` [Example 181, Methyl (4-(3-amino-7-(3-amino-3-methylbut-1-yn-1-yl)-1H-indazol-5-yl)pyridin-2-yl)carbamate1]: the Ki came to 0.02 µM in assay [1] and 0.515 µM in assay [2].

As for `COC(=O)Nc1cc(-c2cc(C#CC(C)(C)OC)c3[nH]nc(N)c3c2)ccn1` [Example 182, Methyl (4-(3-amino-7-(3-methoxy-3-methylbut-1-yn-1-yl)-1H-indazol-5-yl)pyridin-2-yl)carbamate], the Ki worked out at 0.034 µM in assay [1] and 0.363 µM in assay [2].

With `COC(=O)Nc1cc(-c2cc(C#CCN3CCOCC3)c3[nH]nc(N)c3c2)ccn1` [Example 183, Methyl (4-(3-amino-7-(3-morpholinoprop-1-yn-1-yl)-1H-indazol-5-yl)pyridin-2-yl)carbamate], the Ki in assay [1] worked out at 0.047 µM; in assay [2], 0.721 µM.

For the molecule `CNC(=O)Nc1cc(-c2cc(C#CC(C)(C)C)c3[nH]nc(N)c3c2)ccn1` [Example 186, 1-(4-(3-Amino-7-(3,3-dimethylbut-1-yn-1-yl)-1H-indazol-5-yl)pyridin-2-yl)-3-methylurea], the Ki was 0.034 µM in assay [1] and 3.49 µM in assay [2].

`CCNC(=O)Nc1cc(-c2cc(C#CC(C)(C)C)c3[nH]nc(N)c3c2)ccn1` [Example 187, 1-(4-(3-Amino-7-(3,3-dimethylbut-1-yn-1-yl)-1H-indazol-5-yl)pyridin-2-yl)-3-ethylurea]: the results for the Ki in assay [1] and in assay [2] were 0.438 µM and 8.1 µM, respectively.

For the origin of these results see US20250304576A1 (Cancer Research Technology Limited, priority 2022, published 2025).
